In patent US12065494B2, “Combination therapy comprising an FGFR inhibitor and a Nectin-4 targeting agent” (Incyte Corporation, priority 2021, dated 2024):

Experiments:
[1] = test system: RT112/84 bladder cancer xenograft model; assay: RT112/84 xenograft model, tumor growth (6 groups); type: in vivo, mice
Description: The in vivo effect of combining pemigatinib plus EV (Padcev, Refdrug Inc.) was assessed in the RT112/84 bladder cancer (85061106, Sigma/ECACC, UK) xenograft model (FIG. 4) in 6 to 8 weeks old NSG mice (Jackson laboratories). Pemigatinib was suspended in 5% N,N-dimethyl acetamide (DMAC)+50 mM Citrate buffer in 0.5% methyl cellulose for oral administration and EV was suspended in saline for intravenous administration. Briefly, the left flank of the mice were shaved the day prior to subcutaneous inoculation with 2×10^6 RT112/84 suspended in matrigel (Corning Life Sciences, Tewksbury, Mass.). On day 7, tumor dimensions were measured by Vernier calipers, and volume estimated by the formula Volume=[L (long dimension)×W2 (short dimension)]/2. Mice were randomized into 6 groups of 10 mice of approximate mean volume (˜200 mm^3). Tumors were measured 3 times per week for the duration of the study. Starting day 7, mice were dosed with (i) vehicle; (ii) 0.3 mg/kg of pemigatinib; (iii) 1 mg/kg of pemigatinib; (iv) 3 mg/kg of EV; (v) 0.3 mg/kg of pemigatinib and 3 mg/kg of EV; or (vi) 1 mg/kg of pemigatinib and 3 mg/kg of EV. Pemigatinib was administered orally once daily (QD) for 10 days, while EV was dosed every 4 days (for a total of 2 doses).

ERK = assay: RT112/84 in vivo pERK inhibition (tumor lysates, MSD); details: RT112/84 tumor bearing NSG mice; pemigatinib 1 mg/kg oral, EV 3 mg/kg intravenous; tumors collected 4 h post dose
Description: Tumors were then processed and levels of phospho ERK were assessed on tumor lysates by MSD (Mesoscale).

Nectin-4 [2] = assay: RT112/84 in vivo Nectin-4 receptor density (xenograft, flow cytometry); details: RT112/84 tumor bearing NSG mice; pemigatinib 0.3 or 1 mg/kg oral, EV 3 mg/kg intravenous; tumors collected 4 h post dose
Description: The effect of combining pemigatinib plus EV (Padcev, Refdrug Inc.) on Nectin-4 receptor density was also assessed in vivo in the RT112/84 bladder cancer xenograft model (FIG. 2B) in 6 to 8 weeks old NSG mice (Jackson laboratories). Pemigatinib was suspended in 5% N,N-dimethyl acetamide (DMAC)+50 mM Citrate buffer in 0.5% methyl cellulose for oral administration and EV was suspended in saline for intravenous administration. Briefly, the left flanks of the mice were shaved the day prior to subcutaneous inoculation with 2×10^6 RT112/84 suspended in matrigel (Corning Life Sciences, Tewksbury, Mass.). On day 16, mice were dosed with (i) vehicle; (ii) 0.3 mg/kg of pemigatinib; (iii) 1 mg/kg of pemigatinib; (iv) 3 mg/kg of EV; (v) 0.3 mg/kg of pemigatinib and 3 mg/kg of EV; or (vi) 1 mg/kg of pemigatinib and 3 mg/kg of EV, and tumors were collected 4 h post dose.

Nectin-4 [3] = assay: RT112/84 in vitro Nectin-4 receptor density (flow cytometry); type: cell-based; details: RT112/84 cells; 100 nM pemigatinib, 100 nM EV or both; different time points after treatment
Description: The effect of combining pemigatinib plus enfortumab vedotin (“EV”) (Padcev, Refdrug Inc.) on Nectin-4 receptor density was assessed in vitro in the RT112/84 bladder cancer cell line. Briefly, RT112/84 cells were treated with either 100 nM pemigatinib, 100 nM EV, or the combination of both. The receptor density of Nectin-4 was then assessed by flow cytometry upon a LSRFortessa X-20 instrument (BD Biosciences) with Quantibrite phycoerythrin (PE) beads (BD Biosciences Cat No 340495) using an anti-Nectin-4 PE conjugated antibody (RnD Systems Cat No FAB2659) at different time points after treatment (FIG. 2A).

[4] = test system: UM-UC-14 cancer xenograft model; assay: UM-UC-14 xenograft model, tumor growth; type: in vivo, mice; details: single agent
[5] = pemigatinib 0.3 mg/kg oral QD for 10 days
[6] = pemigatinib 1 mg/kg oral QD for 10 days

CCN1C(=O)N(c2c(F)c(OC)cc(OC)c2F)Cc2cnc3[nH]c(CN4CCOCC4)cc3c21 [pemigatinib, 3-(2,6-difluoro-3,5-dimethoxyphenyl)-1-ethyl-8-(morpholin-4-ylmethyl)-1,3,4,7-tetrahydro-2H-pyrrolo[3′,2′:5,6]pyrido[4,3-d]pyrimidin-2-one]
therapeutic effect in delaying tumor growth vs vehicle [1, 5]: all the treatments, with the exemption of pemigatinib 0.3 mg/kg, had a therapeutic effect | therapeutic effect in delaying tumor growth vs vehicle [1, 6]: had a therapeutic effect in delaying tumor growth | phosphorylation of ERK in tumor (ERK): decrease phosphorylation of ERK | Nectin-4 receptor density in tumor cells (Nectin-4 [2]): did not induce changes in Nectin-4 receptor density | Nectin-4 receptor density (Nectin-4 [3]): did not induce changes in Nectin-4 receptor density | therapeutic effect in delaying tumor growth vs vehicle [4, 5]: only pemigatinib 1 mg/kg treatment had a therapeutic effect | therapeutic effect in delaying tumor growth vs vehicle [4, 6]: had a therapeutic effect in delaying tumor growth as single agent
